Legend:
[1] = system: non-obstipative IBS patients; conditions: clinical tests, WO 99/17755, cited from earlier work
[2] = system: non-obstipative IBS patients; assay: 12-week placebo-controlled clinical double-blind study, adequate alleviation of IBS symptoms; format: in vivo, human; conditions: for Final success rate: all patients (471; both sexes); for Success rate (responder rate, adequate alleviation of IBS symptoms): provisional result (454 patients)
Excerpt: The effect of cilansetron on non-obstipative IBS patients of both sexes was investigated in a 12-week placebo-controlled clinical double-blind study with randomized selection and parallel test groups. […] Likewise, those patients were included in the study who responded “No” to the question about pain/feeling of unwellness in the lower abdomen only in ≦50% of the cases or who judged their pain/feeling of unwellness in the lower abdomen as “restrictive” for <2 times over a two-week observation period. Cilansetron was used in doses of 1, 2, 8 and 16 mg. The patients were checked weekly for “adequate alleviation” (=primary effectiveness parameter) of their IBS symptoms (stomach pains such as pains in the abdomen, abnormal bowel activity). Stomach pains such as pains in the abdomen, nature of the stools and stool frequency were rated daily by the patients (=secondary effectiveness parameter). In a provisional result of the double-blind study, the data of a total of 454 patients (297 female patients and 157 male patients) were evaluated and plotted in the table below. Corresponding to the criteria on which the clinical double-blind study was based, in both patient subgroups of male IBS patients and female IBS patients the success rates relating to the “adequate alleviation” of the IBS symptoms as set forth in the table below were noted: The “primary effectiveness parameter” corresponds to the success rate (=“responder rate”) to the question, which was put weekly to the patients, as to whether they had experienced “adequate alleviation” of their IBS symptoms (pain/feeling of unwellness in the lower abdomen, abnormal bowel activity) during the course of the previous week. A “responder” is regarded as a patient who was treated for at least four weeks and who responded “Yes” to the question posed of whether “adequate alleviation” of his/her IBS symptoms had occurred for at least half of his/her treatment period. At the end of the double-blind study, the data of a total of 471 patients (308 female patients and 163 male patients) were evaluated. The final success rates were 40% for the placebo group, 62% for the dose 1 mg cilansetron (TID), 53% for the dose 2 mg cilansetron (TID), 55% for the dose 8 mg cilansetron (TID) and 63% for the dose 16 mg cilansetron (TID).

Cc1[nH]cnc1CN1CCc2c(c3ccccc3n2C)C1=O [alosetron]
Effectiveness on female IBS patients compared with male IBS patients [1]: significantly better effectiveness on female IBS patients
Improvement in condition compared with the placebo group ([1]; male test subjects): no significant improvement in condition compared with the placebo group

Cc1nccn1C[C@H]1CCc2c(c3cccc4c3n2CCC4)C1=O [Cilansetron, (R)-(−)-4,5,6,8,9,10-hexahydro-10-[(2-methyl-1H-imidazol-1-yl)methyl]-11H-pyrido-[3,2,1-jk]-carbazol-11-one]
Final success rate ([2]; 1 mg TID, end of study): 62%
Final success rate ([2]; 2 mg TID, end of study): 53%
Final success rate ([2]; 8 mg TID, end of study): 55%
Final success rate ([2]; 16 mg TID, end of study): 63%
Response to treatment of non-obstipative IBS patients of both sexes ([2]; doses 1, 2, 8 and 16 mg): respond to the treatment with cilansetron in all the dosages investigated
Final success rates, male compared with female patient groups ([2]; end of study, greatest differences at 1 mg TID): very similar for the male and female patient groups
Success rate (responder rate, adequate alleviation of IBS symptoms) ([2]; female patients, 1 mg TID): 69.6%
Success rate (responder rate, adequate alleviation of IBS symptoms) ([2]; female patients, 2 mg TID): 60.3%
Success rate (responder rate, adequate alleviation of IBS symptoms) ([2]; female patients, 8 mg TID): 56.9%
Success rate (responder rate, adequate alleviation of IBS symptoms) ([2]; female patients, 16 mg TID): 61.4%
Success rate (responder rate, adequate alleviation of IBS symptoms) ([2]; male patients, 1 mg TID): 51.3%
Success rate (responder rate, adequate alleviation of IBS symptoms) ([2]; male patients, 2 mg TID): 63.0%
Success rate (responder rate, adequate alleviation of IBS symptoms) ([2]; male patients, 8 mg TID): 56.3%
Success rate (responder rate, adequate alleviation of IBS symptoms) ([2]; male patients, 16 mg TID): 58.6%
